As a reminder, the pKa is the negative logarithm of the acid dissociation constant. High values mean a weaker acid or stronger base, low ones a stronger acid or weaker base. Broadly, the Cmax is the peak of the concentration-time curve.

Molecules are shown by their SMILES. Values joined by “and” are separate entries in the source; they are usually repeats but may differ in a detail not shown here. Identical values can stand only once.

The record followed here is patent publication US9776983B2, “Method for manufacturing fluoropolymers” (SOLVAY SOLEXIS S.p.A., priority 2008, dated 2017).

A short description of one data set: pKa of acid (D). The data set is classed as physicochemical. To be noted: free acid (D). As to the method: An aqueous solution composed of KMnO4 (238 mmol, 37.6 g), NaOH (238 mmol, 9.52 g) in 200 ml of distilled H2O was introduced in a 3-necked glass round-bottomed flask equipped with a magnetic stirrer, a dropping funnel, a thermometer and a tap water refrigerating column. The flask was heated to 80° C. with vigorous stirring and then 238 mmol; 50 g of product obtained from step 1a was slowly dropped into the basic oxidizing solution. Immediate exothermic release (+15° C.) was observed together with formation of MnO2 precipitate. After completion of the addition, solution was further stirred at 80° C. for 40 min. Crude reaction mixture was then cooled to room temperature, filtered, acidified to pH=1 with concentrated HCl (37% w/w) and extracted several times with CH2Cl2. The organic layer was dried over MgSO4, filtered and then the CH2Cl2 is evaporated.

A short description of data set [1]: Plasma levels and pharmacokinetic parameters after single oral (gavage) administration. The data set is classed as in vivo, male Wistar (SPF-bred) rats. The following applies: for elimination from blood compared with APFO: after single oral administration, C/Cmax versus time (FIG. 5); for time of maximal plasma concentration (tmax): single oral, Va, VIIa about 70 μmol/kg, XIII 73 umol/kg. As to the method: (§1) Compound Va and VIIa (Xa═NH4) were administered by single oral route (gavage) three male Wistar (SPF-bred) rats at dose levels of about 70 μmol/kg of dry ammonium salt, corresponding to the 21.2 mg/kg for compound Va and 19.9 mg/kg for compound VIIa. Blood sampling occurred 15 minutes before administration, at 4, 8, 12, 24, 72 and 168 hours after administration.
(§2) Compound XIII was dosed by single oral administration to 3 male Wistar rats at the dose of 73 umol/kg corresponding to 26.06 mg/kg. Blood sampling occurred at 15 minutes before administration, at 4, 8, 12, 24, 72 and 168 hours after administration. Urine samples were obtained at time intervals 0-12, 12-24, 24-72, 72-96, 96-168 hours after dosing. Plasma and urine concentration of XIII were determined by a validated analytical method.
Results of plasma concentrations for compound VIIa (Xa═NH4), Va (Xa═NH4), XIII (Xa═NH4) and APFO as a function of time are sketched in FIG. 5. This graph depicts ratio C/Cmax for compound Va (Xa═NH4) (●) compound VIIa (Xa═NH4) (◯), for compound XIII (Xa═NH4) (□) and APFO (▴), with C=instantaneous plasma concentration and Cmax=maximum plasma concentration, as a function of time (in hours).

The nature of the next data set: Oral acute toxicity. The data set is classed as in vivo. As to the method:
(§3) An organic solution composed of (D) (127 mmol; 30.6 g) and 200 ml of CH2Cl2 was introduced in a 2-necked glass round-bottomed flask equipped with a magnetic stirrer, a tap water refrigerating column and a bubbling tube. The mixture was cooled to 0° C. with vigorous stirring and a large excess of gaseous NH3 was bubbled through the organic mixture. Bubbling of NH3 (g) was pursued until completion of the precipitation of the ammonium salt. Crude mixture was filtered; solid was dried in a vacuum oven at 40° C. under reduced pressure (20 mmHg) for 2 hours. A flaky white solid is obtained. Isolated yield of compound (E) (VIIa, with Xa being NH4)=100%. […] FIG. 2 depicts the ^19F-NMR spectrum of compound (E).

A short description of data set [2]: Thermogravimetric analysis (TGA) in air. The data set is classed as physicochemical. To be noted: ammonium salt. The procedure: as §3
Perfluorinated ester (G) was hydrolyzed in water at 0° C., yielding corresponding acid with quantitative yield. Evolved HF was neutralized with 1.5 mol eq. of KF, yielding solid KHF2, which was separated by filtration. After removal of solvent, the free acid (b.p.=160° C.) and CF3COOH (b.p.=72° C.) were separated by fractional distillation. Gaseous NH3 was then bubbled in a CH2Cl2 (200 ml) solution of the acid; ammonium salt (H) (formula Va, with Xa═NH4) was then recovered with a yield of 75% moles (with respect to alcohol intermediate (B)). […] FIG. 3 depicts the ^19F-NMR spectrum recorded on compound (H).
Acid (XIII, Xa═H) was solubilised in CH2Cl2 (200 ml); gaseous NH3 was then bubbled in said solution; ammonium salt (XIII, Xa═NH4) was then recovered with a yield of 75% moles (with respect to alcohol intermediate (L)). […] FIG. 7 depicts the ^19F-NMR spectrum recorded on ammonium salt (XIII, Xa═NH4).

Data set [3] can be described thus: Urine levels and urinary recovery after single oral administration. The data set is classed as in vivo, male Wistar rats. The procedure: as §1, §2
The mark [4] stands for this setting: plasma, male rats, single oral gavage, about 70 μmol/kg, individual values of the three animals, listed as VIIa (Xa = NH4).

The compound `O=C(O)C1(F)OC(F)(F)OC1OC(F)(F)F` (stereo not shown) [(D)] yielded a pKa in the data set “pKa of acid (D)” of 2.8.

Turning to `N.O=C(O)C1(F)OC(F)(F)OC1OC(F)(F)F` (stereo not shown) [Compound VIIa], in data set [1], the “elimination from blood compared with APFO” value was “significantly faster elimination”. The tmax in data set [1] (plasma, male rats, single oral gavage, about 70 μmol/kg, individual values of the three animals) is on record as 4, 4, 4 h. In data set [1] (setting [4]), the AUC0-t was 135.608 µg·h/mL and 47.07 µg·h/mL and 114.562 µg·h/mL; the AUCinf. is 47.137 µg·h/mL and 115.916 µg·h/mL and 137.788 µg·h/mL; the peak concentration (Cmax) is 11258 ng/mL and 14767 ng/mL and 18878 ng/mL; the “t1/2, z” value was 4.8 h and 8.0 h and 8.9 h. Moreover, in data set [1] (single oral gavage, about 70 μmol/kg, male Wistar rats), the “reliable plasma half life” value was 8.0 to 8.9 h. In data set [1] (male Wistar rats), the “time of maximal plasma concentration (tmax)” value turned out to be 4 h. In addition, in “Oral acute toxicity”, the LD50 result is given as “exceed 2000 mg/kg”. Further, in data set [2], the “TGA temperature at weight decrease of 10%” value was 148 °C and the “TGA temperature at weight decrease of 50%” value is 182 °C. In data set [3] (rats, single oral administration), the “urinary recovery at 168 hours after treatment” value is listed as 97-107%. Besides, the urinary half lives in data set [3] (rats, single oral administration, individual values) is 9 h and 13 h and 10 h.

Consider `N.O=C(O)C(F)(F)OC1(F)OC(F)(F)OC1(F)OC(F)(F)F` (stereo not shown) [Compound XIII], for which, in data set [1], the “elimination from blood compared with APFO” value was “significantly faster elimination”. In data set [1] (male Wistar rats), the “time of maximal plasma concentration (tmax)” value is 4 h. In addition, in data set [2], the “TGA temperature at weight decrease of 10%” value turned out to be 159 °C and the “TGA temperature at weight decrease of 50%” value worked out at 191 °C. Further, the “mean urinary recovery in 168 hours after treatment” value in data set [3] (3 male Wistar rats, single oral, 73 umol/kg (26.06 mg/kg)) was “around 82%”.
